How the values were obtained:
Format in all cases: physicochemical
[1] = Methanol content (residual methanol) measured using a gas chromatograph; conditions: value includes methanol adhering to the crystal surface
Method: Analysis Example Using Gas Chromatograph
Used equipment: GC-2014 (manufactured by Shimadzu Corporation)
Column: AGILENT J&W DB-WAX 30 m×0.535 mm×1.00 μm (Agilent Technologies, Inc.)
Column temperature: 200° C.
By analysis using HPLC, it was confirmed that the crystal was a crystal of eucomic acid. […] The methanol content is a value including methanol adhering to the crystal surface. The methanol content in the crystal except for the methanol adhering to the crystal surface was 9.0 wt %. It was considered from this that the crystal was a mono-methanol solvate crystal of eucomic acid.
Subsequently, the obtained methanol solvate crystal of eucomic acid was heated and dried at 100° C. for 9 hours at normal pressure. By analysis using HPLC, it was confirmed that the crystal after heating and drying was a crystal of eucomic acid. […] As a result of measuring residual methanol using a gas chromatograph, a methanol content of the crystal was 0.14 wt %. It was found from the above that the crystal was a non-solvate crystal of eucomic acid.

[2] = Angle of repose measurement (Multi Tester MT-1001T); conditions: sieve 1.18 mm, vibration width 0.5 to 0.6 mm; mean of three sites
Excerpt: The angle of repose refers to an angle formed by a generating line of a cone formed with a powder when the powder is allowed to gently fall onto the horizontal plane through a kind of funnel and a horizontal plane.
The angle of repose can be measured using Multi Tester MT-1001T (manufactured by Seishin Enterprise Co, Ltd.) in accordance with the accompanying manual according to the following measurement example.
Measurement Example of Angle of Repose
Used equipment: multi-tester MT-1001T type (manufactured by Seishin Enterprise Co., Ud.)
Vibration width: 0.5 to 0.6 mm
Measurement method: Crystals are allowed to fall by passing through a sieve of 1.18 mm that is vibrated with a width of 0.5 to 0.6 mm, and are deposited on an angle-of-repose table (part number: MT-1029). The angle-of-repose table is rotated without being given vibration, angles are read at three sites, and an arithmetic mean value of the angles is determined to be the angle of repose.

[3] = Uniformity coefficient from particle size distribution measurement; conditions: ratio of 60% passing to 10% passing particle diameter; closer to 1 = higher fluidity
Excerpt: The uniformity coefficient is an index representing fluidity of the powder, and refers to a ratio obtained by dividing a particle diameter through which the powder in an amount of 60% passes by a particle diameter through which the powder in an amount of 10% passes on a cumulative particle diameter distribution curve measured by particle size distribution measurement or sieve division. The closer the value of the uniformity coefficient is to 1, the higher the fluidity is.
The uniformity coefficient can be measured in accordance with the accompanying manual using, for example, a particle size distribution measuring device LS 13 32 (manufactured by Beckman Coulter, Inc.).

[4] = Water content by Karl Fischer method; conditions: crystal after heating and drying at 100° C. for 9 hours
Method: Measurement Example by Karl Fischer Method
Used equipment: AQV-2200 (HIRANUMA SANGYO Co., Ltd.)
Measurement method: The water content in the crystal is measured in accordance with instructions for use of AQV-2200 (HIRANUMA SANGYO Co., Ltd.)

[5] = Methanol content in crystal, except methanol adhering to the crystal surface, by thermal analysis; conditions: excluding surface-adhering methanol
Excerpt: The fact that the methanol solvate crystal of eucomic acid is a mono-methanol solvate crystal can be confirmed by the fact that a methanol content in the crystal except for methanol adhering to a crystal surface thereof is generally 7.0 to 14.0 wt %, preferably 9.0 to 11.0 wt %.
The methanol content in the crystal except for the methanol adhering to the crystal surface can be measured by, for example, thermal analysis described in the following measurement example.
Measurement Example of Methanol Content in Crystal by Thermal Analysis
Used equipment: EXSTAR 6000 TG/DTA 6200 (manufactured by Seiko Instruments Inc.)
Measurement conditions: Temperature rises from 20° C. to 30° C. at 20° C./min→Hold for 15 minutes at 30° C.→Temperature rises from 30° C. to 250° C. at 5° C./min
Nitrogen flow rate: 300 mL/min

Row | Methanol content [1] | Methanol content ([1]; listed as non-solvate crystal of eucomic acid) | Angle of repose [2] | Uniformity coefficient [3] | Water content (hydrated water) [4] | Methanol content ([1]; listed as methanol solvate crystal of eucomic acid) | Methanol content in the crystal except for the methanol adhering to the crystal surface [5] | Structure (SMILES)
1 | 0.14 wt % | 0.14 wt % | 39.0 degree | 3.36 | did not contain hydrated water |  |  | O=C(O)C[C@](O)(Cc1ccc(O)cc1)C(=O)O [Non-solvate crystal, (R)-2-hydroxy-2-[(4-hydroxyphenyl)methyl]butanedioic acid]
2 | 28.1 wt % |  | 45.7 degree | 4.25 |  | 28.1 wt % | 9.0 wt % | O=C(O)C[C@](O)(Cc1ccc(O)cc1)C(=O)O [Methanol solvate crystal, (R)-2-hydroxy-2-[(4-hydroxyphenyl)methyl]butanedioic acid]

From US11365170B2, “Non-solvate crystal of eucomic acid and method for producing same” (KYOWA HAKKO BIO CO., LTD., priority 2018, dated 2022)
